Measurements taken from paper PMC7312786 (Biochemistry, 2018).

Experiments:
hpol β = hpol β (Homo sapiens, UniProt P06746); test: Fluorescence-based pol activity assay, hpol β; type: biochemical; details: 20 μM PNR-7-02
hpol ε = molecular target: T1, hpol ε (Homo sapiens, UniProt Q07864, D275A/E277A); test: Fluorescence-based pol activity assay, hpol ε; type: biochemical
T1 sequence (Q07864 1-1189 D275A/E277A limits assumed): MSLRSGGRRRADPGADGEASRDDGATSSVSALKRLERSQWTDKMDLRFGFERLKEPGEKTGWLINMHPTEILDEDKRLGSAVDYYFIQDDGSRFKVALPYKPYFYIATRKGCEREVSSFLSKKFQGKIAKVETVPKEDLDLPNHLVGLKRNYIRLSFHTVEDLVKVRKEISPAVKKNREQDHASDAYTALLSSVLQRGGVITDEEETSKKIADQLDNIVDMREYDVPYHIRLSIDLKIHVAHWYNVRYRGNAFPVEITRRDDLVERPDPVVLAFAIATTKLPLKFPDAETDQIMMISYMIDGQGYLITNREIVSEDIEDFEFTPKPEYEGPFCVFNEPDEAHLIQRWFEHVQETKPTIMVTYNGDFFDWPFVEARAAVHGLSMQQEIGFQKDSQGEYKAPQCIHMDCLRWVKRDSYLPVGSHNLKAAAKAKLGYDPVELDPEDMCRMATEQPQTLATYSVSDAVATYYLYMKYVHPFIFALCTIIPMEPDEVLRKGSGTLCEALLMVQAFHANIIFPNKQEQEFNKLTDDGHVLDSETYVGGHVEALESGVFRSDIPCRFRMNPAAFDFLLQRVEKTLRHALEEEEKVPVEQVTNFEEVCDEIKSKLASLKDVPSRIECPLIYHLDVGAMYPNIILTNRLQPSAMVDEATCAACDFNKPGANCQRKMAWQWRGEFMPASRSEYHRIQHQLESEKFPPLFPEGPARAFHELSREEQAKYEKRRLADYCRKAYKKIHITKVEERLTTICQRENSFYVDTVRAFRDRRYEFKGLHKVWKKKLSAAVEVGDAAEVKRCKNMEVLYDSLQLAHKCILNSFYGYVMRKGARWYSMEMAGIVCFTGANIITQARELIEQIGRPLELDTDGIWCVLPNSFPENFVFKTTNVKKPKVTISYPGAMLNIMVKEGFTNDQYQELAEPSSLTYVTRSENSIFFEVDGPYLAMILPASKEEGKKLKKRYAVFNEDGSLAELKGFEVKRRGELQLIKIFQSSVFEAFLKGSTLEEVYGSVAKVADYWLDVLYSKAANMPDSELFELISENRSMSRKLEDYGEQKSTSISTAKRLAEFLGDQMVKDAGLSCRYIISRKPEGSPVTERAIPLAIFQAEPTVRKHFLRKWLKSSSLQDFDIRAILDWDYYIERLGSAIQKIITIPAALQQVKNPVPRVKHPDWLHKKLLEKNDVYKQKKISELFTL

OVCAR3 cells = test: Combined treatment of OVCAR3 cells with CDDP and PNR-7-02; type: cell-based, human

For `O=C1NC(=S)NC(=O)C1=Cc1cn(Cc2ccc3ccccc3c2)c2ccc(Cl)cc12` [PNR-7-02, 5-((5-chloro-1-(naphthalen-2-ylmethyl)-1H-indol-3-yl)methylene)-2-thioxodihydropyrimidine-4,6-(1H,5H)-dione], the “Effect on hpol β” value (hpol β) was “no effect”, the “Pol activity relative to DMSO control, hpol β” value (hpol β; mean (±SD)) was 103 (±8) % and the “Pol activity relative to DMSO control, hpol ε” value (hpol ε; 20 μM PNR-7-02, mean (±SD)) was 32 (±5) %. For the same compound, the “Specificity for hpol η over replicative pols (hpol ε)” value (hpol ε; from activity at 20 μM PNR-7-02) was 5–10 fold and the “Combination index (CI) with CDDP” value (OVCAR3 cells) was 0.4.
